Results as given in ChEMBL document CHEMBL1275557, “First countrywide survey of acquired metallo-beta-lactamases in gram-negative pathogens in Italy” (2008).
Values after ≈ are worked out from the molar mass of the structure shown.

Experiments:
Format in all cases: functional
Pseudomonas aeruginosa [1] = assay: Antibacterial activity against VIM-1 producing Pseudomonas aeruginosa clone G isolate NA-14X-13 by Etest method
Pseudomonas aeruginosa [2] = assay: Antibacterial activity against VIM-1 producing Pseudomonas aeruginosa clone E isolate VA-06X-29 by Etest method
Pseudomonas aeruginosa [3] = assay: Antibacterial activity against VIM-2 producing Pseudomonas aeruginosa clone B2 isolate VA-06X-38 by Etest method
Pseudomonas aeruginosa [4] = assay: Antibacterial activity against VIM-2 producing Pseudomonas aeruginosa clone B3 isolate PV-05X-07 by Etest method
Pseudomonas aeruginosa [5] = assay: Antibacterial activity against VIM-1 producing Pseudomonas aeruginosa clone F isolate RM-11X-09 by Etest method
Pseudomonas aeruginosa [6] = assay: Antibacterial activity against VIM-1 producing Pseudomonas aeruginosa clone D3 isolate VA-06X-65 by Etest method
Pseudomonas aeruginosa [7] = assay: Antibacterial activity against VIM-1 producing Pseudomonas aeruginosa clone D2 isolate VA-06X-16 by Etest method
Pseudomonas aeruginosa [8] = assay: Antibacterial activity against VIM-1 producing Pseudomonas aeruginosa clone D4 isolate VA-06X-47 by Etest method
Pseudomonas aeruginosa [9] = assay: Antibacterial activity against VIM-1 producing Pseudomonas aeruginosa clone A3 isolate NA-14X-34 by Etest method
Pseudomonas aeruginosa [10] = assay: Antibacterial activity against VIM-2 producing Pseudomonas aeruginosa clone B3 isolate PV-05X-02 by Etest method
Pseudomonas aeruginosa [11] = assay: Antibacterial activity against VIM-2 producing Pseudomonas aeruginosa clone B1 isolate SS-09X-45 by Etest method
Pseudomonas aeruginosa [12] = assay: Antibacterial activity against VIM-1 producing Pseudomonas aeruginosa clone A2 isolate NA-14X-21 by Etest method
Pseudomonas aeruginosa [13] = assay: Antibacterial activity against IMP-13 producing Pseudomonas aeruginosa clone C2 isolate NA-14X-02 by Etest method
Pseudomonas aeruginosa [14] = assay: Antibacterial activity against VIM-2 producing Pseudomonas aeruginosa clone B3 isolate CR-04X-14 by Etest method
Pseudomonas aeruginosa [15] = assay: Antibacterial activity against IMP-13 producing Pseudomonas aeruginosa clone C2 isolate NA-14X-10 by Etest method
Pseudomonas aeruginosa [16] = assay: Antibacterial activity against VIM-1 producing Pseudomonas aeruginosa clone A3 isolate FG-17X-08 by Etest method
Pseudomonas aeruginosa [17] = assay: Antibacterial activity against VIM-1 producing Pseudomonas aeruginosa clone D2 isolate VA-06X-17 by Etest method
Pseudomonas aeruginosa [18] = assay: Antibacterial activity against IMP-13 producing Pseudomonas aeruginosa clone C3 isolate PG-12X-03 by Etest method
Pseudomonas aeruginosa [19] = assay: Antibacterial activity against VIM-1 producing Pseudomonas aeruginosa clone D1 isolate VA-06X-63 by Etest method
Pseudomonas aeruginosa [20] = assay: Antibacterial activity against VIM-1 producing Pseudomonas aeruginosa clone D isolate VA-06X-69 by Etest method
Pseudomonas aeruginosa [21] = assay: Antibacterial activity against IMP-13 producing Pseudomonas aeruginosa clone C2 isolate NA-14X-12 by Etest method
Pseudomonas aeruginosa [22] = assay: Antibacterial activity against VIM-2 producing Pseudomonas aeruginosa clone B2 isolate VA-06X-28 by Etest method
Pseudomonas aeruginosa [23] = assay: Antibacterial activity against VIM-2 producing Pseudomonas aeruginosa clone B2 isolate VA-06X-20 by Etest method
Enterobacter cloacae [24] = assay: Antibacterial activity against VIM-1 producing Enterobacter cloacae isolate TO-16X-51 by Etest method
Pseudomonas putida [25] = assay: Antibacterial activity against VIM-1 producing Pseudomonas putida isolate RM-11X-11 by Etest method
Pseudomonas aeruginosa [26] = assay: Antibacterial activity against IMP-13 producing Pseudomonas aeruginosa clone C1 isolate AV-13X-28 by Etest method
Pseudomonas aeruginosa [27] = assay: Antibacterial activity against VIM-1 producing Pseudomonas aeruginosa clone A2 isolate NA-14X-32 by Etest method
Pseudomonas aeruginosa [28] = assay: Antibacterial activity against IMP-13 producing Pseudomonas aeruginosa clone C2 isolate NA-14X-11 by Etest method
Pseudomonas aeruginosa [29] = assay: Antibacterial activity against VIM-1 producing Pseudomonas aeruginosa clone A2 isolate NA-14X-26 by Etest method
Pseudomonas aeruginosa [30] = assay: Antibacterial activity against VIM-1 producing Pseudomonas aeruginosa clone A1 isolate FG-17X-14 by Etest method
Pseudomonas aeruginosa [31] = assay: Antibacterial activity against metallo-beta-lactamase positive Pseudomonas aeruginosa assessed as percent susceptible isolates by Etest method
Pseudomonas aeruginosa [32] = assay: Antibacterial activity against nonreplicate Pseudomonas aeruginosa clinical isolate by Etest method
Acinetobacter baumannii = assay: Antibacterial activity against nonreplicate Acinetobacter baumannii clinical isolate by Etest method
Klebsiella aerogenes = assay: Antibacterial activity against nonreplicate Enterobacter aerogenes clinical isolate by Etest method
Klebsiella pneumoniae = assay: Antibacterial activity against nonreplicate Klebsiella pneumoniae clinical isolate by Etest method
[33] = Antibacterial activity against nonreplicate Burkholderia cepacia complex clinical isolate by Etest method
Proteus mirabilis = assay: Antibacterial activity against nonreplicate Proteus mirabilis clinical isolate by Etest method
Enterobacter cloacae [34] = assay: Antibacterial activity against nonreplicate Enterobacter cloacae clinical isolate by Etest method
Pseudomonas putida [35] = assay: Antibacterial activity against nonreplicate Pseudomonas putida clinical isolate by Etest method

Compound	MIC (Pseudomonas aeruginosa [1]) [µg/mL]	MIC (Pseudomonas aeruginosa [2]) [µg/mL]	MIC (Pseudomonas aeruginosa [3]) [µg/mL]	MIC (Pseudomonas aeruginosa [4]) [µg/mL]	MIC (Pseudomonas aeruginosa [5]) [µg/mL]	MIC (Pseudomonas aeruginosa [6]) [µg/mL]	MIC (Pseudomonas aeruginosa [7]) [µg/mL]	MIC (Pseudomonas aeruginosa [8]) [µg/mL]	MIC (Pseudomonas aeruginosa [9]) [µg/mL]	MIC (Pseudomonas aeruginosa [10]) [µg/mL]	MIC (Pseudomonas aeruginosa [11]) [µg/mL]	MIC (Pseudomonas aeruginosa [12]) [µg/mL]	MIC (Pseudomonas aeruginosa [13]) [µg/mL]	MIC (Pseudomonas aeruginosa [14]) [µg/mL]	MIC (Pseudomonas aeruginosa [15]) [µg/mL]	MIC (Pseudomonas aeruginosa [16]) [µg/mL]	MIC (Pseudomonas aeruginosa [17]) [µg/mL]	MIC (Pseudomonas aeruginosa [18]) [µg/mL]	MIC (Pseudomonas aeruginosa [19]) [µg/mL]	MIC (Pseudomonas putida [25]) [µg/mL]	further results
CC(C)(O/N=C(\C(=O)N[C@@H]1C(=O)N2C(C(=O)[O-])=C(C[n+]3ccccc3)CS[C@H]12)c1csc(N)n1)C(=O)O [CEFTAZIDIME]	> 128	> 128	48 (≈ 87.8 µM)	32 (≈ 58.5 µM)	> 128	> 128	> 128	> 128	> 128	32 (≈ 58.5 µM)	> 128	> 128	> 128	64 (≈ 117 µM)	> 128	> 128	> 128	> 128	> 128	> 128	MIC (Pseudomonas aeruginosa [20]): > 128 µg/mL; MIC (Pseudomonas aeruginosa [21]): > 128 µg/mL; MIC (Pseudomonas aeruginosa [22]): 64 µg/mL (≈ 117 µM); MIC (Pseudomonas aeruginosa [23]): 64 µg/mL (≈ 117 µM); MIC (Enterobacter cloacae [24]): > 128 µg/mL; MIC (Pseudomonas aeruginosa [26]): > 128 µg/mL; MIC (Pseudomonas aeruginosa [27]): > 128 µg/mL; MIC (Pseudomonas aeruginosa [28]): > 128 µg/mL; MIC (Pseudomonas aeruginosa [29]): > 128 µg/mL; MIC (Pseudomonas aeruginosa [30]): > 128 µg/mL
NCC[C@H](O)C(=O)N[C@@H]1C[C@H](N)[C@@H](O[C@H]2O[C@H](CN)[C@@H](O)[C@H](O)[C@H]2O)[C@H](O)[C@H]1O[C@H]1O[C@H](CO)[C@@H](O)[C@H](N)[C@H]1O [AMIKACIN]	> 128	> 128	> 128	> 128	8 (≈ 13.7 µM)	8 (≈ 13.7 µM)	8 (≈ 13.7 µM)	8 (≈ 13.7 µM)	24 (≈ 41 µM)	> 128	> 128	24 (≈ 41 µM)	16 (≈ 27.3 µM)	> 128	16 (≈ 27.3 µM)	16 (≈ 27.3 µM)	8 (≈ 13.7 µM)	> 128	8 (≈ 13.7 µM)	1 (≈ 1.71 µM)	Activity (Pseudomonas aeruginosa [31]): 50%; MIC (Pseudomonas aeruginosa [20]): 8 µg/mL (≈ 13.7 µM); MIC (Pseudomonas aeruginosa [21]): 16 µg/mL (≈ 27.3 µM); MIC (Pseudomonas aeruginosa [22]): > 128 µg/mL; MIC (Pseudomonas aeruginosa [23]): > 128 µg/mL; MIC (Enterobacter cloacae [24]): 24 µg/mL (≈ 41 µM); MIC (Pseudomonas aeruginosa [26]): 8 µg/mL (≈ 13.7 µM); MIC (Pseudomonas aeruginosa [27]): 24 µg/mL (≈ 41 µM); MIC (Pseudomonas aeruginosa [28]): 16 µg/mL (≈ 27.3 µM); MIC (Pseudomonas aeruginosa [29]): 32 µg/mL (≈ 54.6 µM); MIC (Pseudomonas aeruginosa [30]): 8 µg/mL (≈ 13.7 µM)
O=C(O)c1cn(C2CC2)c2cc(N3CCNCC3)c(F)cc2c1=O [CIPROFLOXACIN]																				0.06 (≈ 0.181 µM)	
COLISTIN	2	2	1	1	1	0.5	1	1	2	1	2	2	0.5	2	0.5	0.5	1	0.5	1	0.25	MIC (Pseudomonas aeruginosa [20]): 1 µg/mL; MIC (Pseudomonas aeruginosa [21]): 0.5 µg/mL; MIC (Pseudomonas aeruginosa [22]): 1 µg/mL; MIC (Pseudomonas aeruginosa [23]): 1 µg/mL; MIC (Enterobacter cloacae [24]): 0.25 µg/mL; MIC (Pseudomonas aeruginosa [26]): 2 µg/mL; MIC (Pseudomonas aeruginosa [27]): 2 µg/mL; MIC (Pseudomonas aeruginosa [28]): 0.5 µg/mL; MIC (Pseudomonas aeruginosa [29]): 2 µg/mL; MIC (Pseudomonas aeruginosa [30]): 1 µg/mL
C[C@H]1[C@H](NC(=O)/C(=N\OC(C)(C)C(=O)O)c2csc(N)n2)C(=O)N1S(=O)(=O)O [AZTREONAM]																				8 (≈ 18.4 µM)	Activity (Pseudomonas aeruginosa [31]): 75%
GENTAMICIN	> 128	> 128	8	8	> 128	> 128	> 128	> 128	> 128	8	> 128	> 128	> 128	8	> 128	> 128	> 128	> 128	> 128	4	MIC (Pseudomonas aeruginosa [20]): > 128 µg/mL; MIC (Pseudomonas aeruginosa [21]): > 128 µg/mL; MIC (Pseudomonas aeruginosa [22]): 8 µg/mL; MIC (Pseudomonas aeruginosa [23]): 8 µg/mL; MIC (Enterobacter cloacae [24]): 2 µg/mL; MIC (Pseudomonas aeruginosa [26]): > 128 µg/mL; MIC (Pseudomonas aeruginosa [27]): > 128 µg/mL; MIC (Pseudomonas aeruginosa [28]): > 128 µg/mL; MIC (Pseudomonas aeruginosa [29]): > 128 µg/mL; MIC (Pseudomonas aeruginosa [30]): > 128 µg/mL
C[C@H]1COc2c(N3CCN(C)CC3)c(F)cc3c(=O)c(C(=O)O)cn1c23.C[C@H]1COc2c(N3CCN(C)CC3)c(F)cc3c(=O)c(C(=O)O)cn1c23.O [LEVOFLOXACIN]	> 32	> 32	> 32	> 32	> 32	> 32	> 32	> 32	> 32	> 32	> 32	> 32	> 32	> 32	> 32	> 32	> 32	> 32	> 32	0.25	MIC (Pseudomonas aeruginosa [20]): > 32 µg/mL; MIC (Pseudomonas aeruginosa [21]): > 32 µg/mL; MIC (Pseudomonas aeruginosa [22]): > 32 µg/mL; MIC (Pseudomonas aeruginosa [23]): > 32 µg/mL; MIC (Enterobacter cloacae [24]): > 32 µg/mL; MIC (Pseudomonas aeruginosa [26]): > 32 µg/mL; MIC (Pseudomonas aeruginosa [27]): > 32 µg/mL; MIC (Pseudomonas aeruginosa [28]): > 32 µg/mL; MIC (Pseudomonas aeruginosa [29]): > 32 µg/mL; MIC (Pseudomonas aeruginosa [30]): > 32 µg/mL
C[C@@H](O)[C@H]1C(=O)N2C(C(=O)O)=C(SCCNC=N)C[C@H]12 [IMIPENEM ANHYDROUS]	> 32	> 32	> 32	> 32	> 32	> 32	> 32	> 32	> 32	> 32	> 32	> 32	> 32	> 32	> 32	> 32	> 32	> 32	> 32	> 32	MIC (Pseudomonas aeruginosa [32]): 8 µg/mL (≈ 26.7 µM); MIC (Acinetobacter baumannii): 4 µg/mL (≈ 13.4 µM); MIC (Klebsiella aerogenes): 16 µg/mL (≈ 53.4 µM); MIC (Klebsiella pneumoniae): 2 µg/mL (≈ 6.68 µM); MIC [33]: 8 µg/mL (≈ 26.7 µM); MIC (Pseudomonas aeruginosa [20]): > 32 µg/mL; MIC (Pseudomonas aeruginosa [21]): > 32 µg/mL; MIC (Pseudomonas aeruginosa [22]): > 32 µg/mL; MIC (Pseudomonas aeruginosa [23]): > 32 µg/mL; MIC (Enterobacter cloacae [24]): 4 µg/mL (≈ 13.4 µM); MIC (Proteus mirabilis): 8 µg/mL (≈ 26.7 µM); MIC (Pseudomonas aeruginosa [26]): > 16 µg/mL; MIC (Pseudomonas aeruginosa [27]): > 32 µg/mL; MIC (Pseudomonas aeruginosa [28]): > 32 µg/mL; MIC (Enterobacter cloacae [34]): 4 µg/mL (≈ 13.4 µM); MIC (Pseudomonas aeruginosa [29]): > 32 µg/mL; MIC (Pseudomonas aeruginosa [30]): > 32 µg/mL; MIC (Pseudomonas putida [35]): 16 µg/mL (≈ 53.4 µM)
C[C@@H](O)[C@H]1C(=O)N2C(C(=O)O)=C(S[C@@H]3CN[C@H](C(=O)N(C)C)C3)[C@H](C)[C@H]12 [MEROPENEM]	> 32	> 32	> 32	8 (≈ 20.9 µM)	> 32	> 32	> 32	> 32	> 32	8 (≈ 20.9 µM)	> 32	> 32	> 32	> 32	> 32	> 32	> 32	> 32	> 32	> 32	MIC (Pseudomonas aeruginosa [20]): > 32 µg/mL; MIC (Pseudomonas aeruginosa [21]): > 32 µg/mL; MIC (Pseudomonas aeruginosa [22]): > 32 µg/mL; MIC (Pseudomonas aeruginosa [23]): > 32 µg/mL; MIC (Enterobacter cloacae [24]): 2 µg/mL (≈ 5.22 µM); MIC (Pseudomonas aeruginosa [26]): 8 µg/mL (≈ 20.9 µM); MIC (Pseudomonas aeruginosa [27]): > 32 µg/mL; MIC (Pseudomonas aeruginosa [28]): > 32 µg/mL; MIC (Pseudomonas aeruginosa [29]): > 32 µg/mL; MIC (Pseudomonas aeruginosa [30]): > 32 µg/mL
